Source: the supplement of paper PMC10307832

Assays:
Test in all cases: relative viability (nuclei count vs DMSO), 5 days (fraction); higher = more cells survive
Tanzisertib + Tozasertib = compound: O[C@H]1CC[C@H](Nc2ncc3nc(Nc4c(F)cc(F)cc4F)n([C@H]4CCOC4)c3n2)CC1 [Tanzisertib] + Cc1cc(Nc2cc(N3CCN(C)CC3)nc(Sc3ccc(NC(=O)C4CC4)cc3)n2)n[nH]1 [Tozasertib] (partner 0.1 µM)
Method in brief: (§1)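 Relative viability equals treated-well nuclei counts divided by vehicle-well nuclei counts. Counts came from 4× images of lung cancer cell lines grown in 1536-well plates for 5 days after pin-tool dosing on the day after seeding. Dosing used one drug alone or a fixed anchor-drug dose plus five library-drug doses (not always all listed) in √10 steps, and values are medians of duplicate plates.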

[1] = compound: C[C@@H](N)c1ccc(C(=O)Nc2ccnc3[nH]ccc23)cc1 + CS(=O)(=O)CCNCc1ccc(-c2ccc3ncnc(Nc4ccc(OCc5cccc(F)c5)c(Cl)c4)c3c2)o1 [Lapatinib] (partner 2 µM)
Method in brief: as §1

[2] = compound: C1CNCCC1C2=CC(=NN2)C3=CC=NC=C3 + C[C@@H](Oc1cc(-c2cnn(C3CCNCC3)c2)cnc1N)c1c(Cl)ccc(F)c1Cl [Crizotinib] (partner 1 µM)
Method in brief: as §1

Tanzisertib + Linsitinib = compound: O[C@H]1CC[C@H](Nc2ncc3nc(Nc4c(F)cc(F)cc4F)n([C@H]4CCOC4)c3n2)CC1 [Tanzisertib] + C[C@]1(O)C[C@@H](c2nc(-c3ccc4ccc(-c5ccccc5)nc4c3)c3c(N)nccn32)C1 [Linsitinib] (partner 1 µM)
Method in brief: as §1

Cell Line	relative viability (Tanzisertib + Tozasertib; first compound 0.08 µM)	relative viability (Tanzisertib + Tozasertib; first compound 0.253 µM)	relative viability (Tanzisertib + Tozasertib; first compound 0.8 µM)	relative viability (Tanzisertib + Tozasertib; first compound 2.53 µM)	relative viability (Tanzisertib + Tozasertib; first compound 8 µM)	relative viability ([1]; first compound 0.04 µM)	relative viability ([1]; first compound 0.1265 µM)	relative viability ([1]; first compound 0.4 µM)	relative viability ([1]; first compound 1.265 µM)	relative viability ([1]; first compound 4 µM)	relative viability ([2]; first compound 0.08 µM)	relative viability ([2]; first compound 2.53 µM)	relative viability ([2]; first compound 8 µM)	relative viability (Tanzisertib + Linsitinib; first compound 0.08 µM)	relative viability (Tanzisertib + Linsitinib; first compound 0.253 µM)	relative viability (Tanzisertib + Linsitinib; first compound 0.8 µM)	relative viability (Tanzisertib + Linsitinib; first compound 2.53 µM)	relative viability (Tanzisertib + Linsitinib; first compound 8 µM)	relative viability ([2]; first compound 0.8 µM)
HCC-78	0.493	0.392	0.422	0.389	0.329	1.3	0.767	1.15	0.171	0.677	0.369	0.399	0.381	0.478	0.524	0.528	0.367	0.529	–
HCC-366	0.105	0.0977	0.114	0.0525	0.0508	1	1.15	1.11	–	1.04	0.462	0.551	0.536	0.757	0.59	0.691	0.576	0.419	0.559
HCC-827	0.432	0.449	0.354	0.353	0.3	0.233	0.203	0.168	0.246	0.196	0.979	1.01	0.883	0.919	0.915	0.907	0.954	0.746	0.932
HOP-62	0.428	0.433	0.356	0.382	0.375	0.929	0.784	1.02	0.512	0.982	0.682	0.942	0.978	0.924	1.14	1.13	1.04	0.918	1.11
IA-LM	–	–	–	–	–	0.779	0.954	0.865	1.27	0.957	0.842	1.14	0.92	0.793	0.552	0.589	0.712	0.768	0.839
LC-2-ad	0.479	0.412	0.495	0.415	0.34	0.899	0.922	1	0.967	0.661	0.491	0.445	0.456	0.94	0.838	0.921	0.812	0.796	0.478
LCLC-97TM1	0.252	0.199	0.207	0.207	0.179	1.53	1.45	1.65	0.83	1.36	0.348	0.408	0.406	–	0.18	0.192	0.186	0.2	0.429
LCLC-103H	0.597	0.442	0.499	0.475	0.457	–	–	–	–	–	1.11	1.07	0.935	0.928	0.994	0.917	1.06	1.11	1.04
LK-2	0.164	0.18	0.17	0.163	0.169	1.06	0.693	0.975	0.814	0.733	0.232	0.221	0.265	0.522	0.519	0.724	0.624	0.637	0.252
LOU-NH91	0.778	0.683	0.681	0.652	0.596	0.701	0.749	0.801	0.575	0.709	0.718	0.78	0.742	0.996	0.906	0.996	0.842	0.627	0.733
NCI-H441	0.568	0.71	0.512	0.422	0.698	–	–	–	–	–	0.709	0.853	0.862	0.626	0.607	0.634	0.553	0.454	0.713
NCI-H522	0.578	0.458	0.555	0.572	0.545	–	–	–	–	–	–	–	–	–	–	–	–	–	–
NCI-H1299	–	–	–	–	–	0.908	0.93	0.91	0.837	0.737	0.991	0.99	0.9	1.16	0.976	1.02	1.09	1.06	1
NCI-H1395	0.869	0.773	0.783	0.687	0.712	0.935	1.2	0.954	–	0.941	–	–	–	1.32	0.956	1.08	1.04	1.05	–
NCI-H1563	–	–	–	–	–	0.805	0.945	0.854	0.446	1.05	0.644	0.85	0.941	1.28	1.12	1.2	1.24	1.16	0.766
NCI-H1623	0.482	0.414	0.482	0.47	0.405	–	–	–	–	–	–	–	–	–	–	–	–	–	–
NCI-H1648	0.418	0.564	0.467	0.398	0.597	–	–	–	–	–	–	–	–	–	–	–	–	–	–
NCI-H1650	0.392	0.433	0.399	0.359	0.294	0.701	0.63	0.772	0.155	0.834	0.43	1.07	0.963	–	–	–	–	–	1.08
NCI-H1703	–	–	–	–	–	1.24	0.982	0.85	0.847	0.541	0.823	0.824	1.01	1.03	0.674	0.787	0.316	0.546	0.813
NCI-H1792	–	–	–	–	–	0.923	0.922	0.966	0.607	0.783	0.987	1.06	0.959	0.552	0.562	0.623	0.497	0.478	0.983
NCI-H1793	0.289	0.287	0.303	0.246	0.223	0.828	0.564	0.907	–	0.888	–	–	–	1.04	0.686	0.972	0.884	0.816	–
NCI-H2170	0.881	0.789	0.669	0.717	0.651	0.28	0.273	0.302	0.323	0.26	1.04	1.42	1.15	–	–	–	–	–	1.23
NCI-H2342	0.584	0.481	0.63	0.523	0.581	–	–	–	–	–	–	–	–	–	–	–	–	–	–
SW 900	0.686	0.528	0.603	0.501	0.544	–	–	–	–	–	–	–	–	–	–	–	–	–	–
